Where only a bound is given, the exact number is not on record here.

Assay [1] has as its target T1, Akt1 (full-length Akt1, inactive) (Homo sapiens, UniProt P31749).
T1 construct: recombinant full-length human Akt1 a containing N-terminal His6 tag; His6 (N); purchased Upstate, UK #14-279; host or cells: baculovirus infected Sf21 insect cells
The assay is described as follows: Biochemical Akt1 (inactive) assay (full-length Akt1), IMAP, PDK1-dependent activation. As to conditions: activation by PDK1 with PIP3 vesicles, 50 μM ATP, 60 min. at room temperature; read-out: Inhibition of Akt1 activation (full-length Akt1, inactive): IC50. Here is the method:
The enzyme is purified using Ni2+/NTA-agarose (Upstate, UK; #14-279).
The enzyme is purified using Ni2+/NTA-agarose.
PDK1-dependent activation and subsequent enzymatic activity of Akt1: Activity of purified human Akt1 is routinely measured in an assay in which the enzyme is first activated by PDK1 in the presence of phosphatidylinositol-3,4,5-triphosphate (PIP3). Once activated, Akt1-dependent phosphorylation of a fluorescence labelled peptide substrate is measured by fluorescence polarisation using the IMAP technology (Molecular Devices).
The phospholipids are prepared as follows: 5 mg DOPC/DOPS are solved in 200 μl 10 mM Tris (pH 7.4) and 300 μg PIP3 are resuspended in 950 μl 10 mM Tris (pH 7.4) by pipetting. 950 μl solved PIP3 are mixed with 50 μl solved DOPC/DOPS and incubated for 2 h at a temperature below 20° C. Then the mixture is subjected to sonification for 30 min. at max. power until a translucent phopholipid vesicle preparation is obtained. Aliquots of the vesicle suspension are frozen at −80° C. until needed, likewise the solved DOPC/DOPS.
Assays are performed in 384-well plates. Incubations are carried out for 60 min. at room temperature. The reaction buffer mixture contains in a final volume of 25 μl: 10 mM Tris pH 7.4, 10 mM MgCl2. 1 mM DTT, and 0,1 mg/ml BSA. In contrast the activation buffer contains: 50 ng/well Akt1, 20 ng/well PDK1, 1.25 μM peptide substrat, 50 μM ATP, and phospholipid vesicles (1:20). Test compounds are added from stock solutions in DMSO before activation of Akt1 by PDK1. After the incubation the beads (IMAP binding reagent; Molecular Devices; 1:167) are added and the fluorescence polarization is measured (excitation 485 nm, emission 530 nm). The analysis of the data is performed using a biostatistical program.

Assay [2] deals with MCF7 cells. The assay is described as follows: Cellular proliferation/cytotoxicity assay (Alamar Blue), MCF7. The format is cell-based. Particulars: Homo sapiens; MCF7, 48 hours, Alamar Blue (Resazurin); read-out: Anti-proliferative/cytotoxic activity: IC50 MCF7. Here is the method: (§1) The anti-proliferative activity of the compounds as described herein, is evaluated using MCF7 and MDA-MB-468 (ATCC HTB-22 and HTB-132) cell lines and the Alamar Blue (Resazurin) cell viability assay (O'Brien et al. Eur J Biochem 267, 5421-5426, 2000). Resazurin is reduced to the fluorescent rescrufin by cellular dehydrogenase activity, correlating with viable, proliferating cells. Test compounds are dissolved as 10 mM solutions in DMSO and subsequently diluted. MCF7 or […] cells were seeded into 96 well flat bottom plates at a density of 10000 cells/well (MCF7) or 5000 cells/well (MDA-MB-468) in a volume of 200 μl/well. 24 hours after seeding, 1 μl each of the compound dilutions are added into each well of the 96 well plates. Each compound dilution is tested as at least as duplicates. Wells containing untreated control cells were filled with 200 μl DMEM containing 0.5% v:v DMSO. The cells are then incubated with the substances for 48 hours at 37° C. in a humidified atmosphere containing 5% carbon dioxide. To determine cell viability, 20 μl of a Resazurin solution (Sigma; 90 mg/l) are added. After 4 hours incubation at 37° C. the fluorescence is measured at an extinction of 544 nm and an emission of 590 nm (Wallac Victor2; Perkin Elmer, USA). For the calculation of the cell viability the emission value from untreated cells is set as 100% viability and the emission rates of treated cells are set in relation to the values of untreated cells. Viabilities are expressed as % values. The corresponding IC50 values of the compounds for cytotoxic activity are determined from the concentration-effect curves by means of non-linear regression. The analysis of the data is performed using a biostatistical program (GraphPad Prism, USA).

Assay [3] has as its system MDA-MB-468 cells. The assay is described as follows: Cellular proliferation/cytotoxicity assay (Alamar Blue), MDA-MB-468. As to conditions: Homo sapiens; MDA-MB-468, 48 hours, Alamar Blue (Resazurin); read-out: Anti-proliferative/cytotoxic activity: IC50 MDA468. The format is cell-based. As to the method: as §1

T1 sequence (P31749 whole entry): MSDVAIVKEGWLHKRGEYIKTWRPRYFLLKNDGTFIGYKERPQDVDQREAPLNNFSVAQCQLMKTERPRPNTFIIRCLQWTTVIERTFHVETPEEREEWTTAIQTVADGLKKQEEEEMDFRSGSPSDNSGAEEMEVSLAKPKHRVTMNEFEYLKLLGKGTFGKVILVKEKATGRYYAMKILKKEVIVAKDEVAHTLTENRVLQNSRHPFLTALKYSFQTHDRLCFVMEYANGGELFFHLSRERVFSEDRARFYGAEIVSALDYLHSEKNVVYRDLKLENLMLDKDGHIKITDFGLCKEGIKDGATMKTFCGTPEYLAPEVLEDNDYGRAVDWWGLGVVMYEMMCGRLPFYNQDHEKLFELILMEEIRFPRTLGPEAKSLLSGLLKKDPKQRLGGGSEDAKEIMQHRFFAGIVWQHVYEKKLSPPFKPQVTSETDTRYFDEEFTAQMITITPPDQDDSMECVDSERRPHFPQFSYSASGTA

In the case of `CC(C)(N)c1ccc(C(=O)Nc2ccc(Nc3cc(-c4cccc5c4oc4ccccc45)ncn3)cc2)cc1` [Compound 69, 4-(1-Amino-1-methyl-ethyl)-N-[4-(6-dibenzofuran-4-yl-pyrimidin-4-ylamino)-phenyl]-benzamide trifluoracetate], the IC50 in assay [1] was no more than 4.4 µM; in assay [2], no more than 16.6 µM; in assay [3], no more than 6.05 µM.

(Values after patent publication US7879853B2, “4,6-disubstituted pyrimidines and their use as protein kinase inhibitors” (Bayer Schering Pharma AG, priority 2004, dated 2011).)
